Experimental data from patent US9624233B2, “Compounds for treating pruritic conditions” (priority 2015, dated 2017).
“And” between values parts separate entries of the source, which are not always exact repeats. Identical values can stand only once.

Tests used:
[1] = Plasma Cmax in HD patients; conditions: human
[2] = target: T1, cloned human κ-opioid receptor expressed in CHO (Homo sapiens, UniProt P41145); assay: cell-based; conditions: opioid-agonist assay
OX2 (h) = target: T2, OX2 (h) (Homo sapiens, UniProt O43614); assay: Abuse liability binding screen, OX2 (h) (agonist radioligand)
T2 sequence (O43614 1-444): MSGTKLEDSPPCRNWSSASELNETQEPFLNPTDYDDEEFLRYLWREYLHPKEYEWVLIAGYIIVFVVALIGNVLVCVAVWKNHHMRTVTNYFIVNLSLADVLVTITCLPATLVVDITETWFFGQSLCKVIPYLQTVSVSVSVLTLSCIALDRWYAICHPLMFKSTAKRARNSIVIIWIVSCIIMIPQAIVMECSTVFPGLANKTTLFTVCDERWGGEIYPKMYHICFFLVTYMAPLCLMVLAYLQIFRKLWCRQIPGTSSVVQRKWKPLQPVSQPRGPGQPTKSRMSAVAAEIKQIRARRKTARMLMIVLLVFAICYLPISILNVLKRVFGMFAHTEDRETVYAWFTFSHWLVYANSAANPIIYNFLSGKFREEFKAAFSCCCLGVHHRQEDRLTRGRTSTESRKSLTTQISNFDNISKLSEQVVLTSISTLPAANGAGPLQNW
Description: […]. The abuse liability screen included 44 targets (receptors, transporters, on gated-channel systems) related to the dopamine, norepinephrine, serotonin, gamma-aminobutyric acid (GABA), acetylcholine, N-methyl-D-aspartate (NMDA) cannabinoid and opioid neurotransmitter systems as recommended in FDA Draft guidance on Assessment of Abuse Potential of Drugs, January 2010.
(§1) Compound binding was calculated as a % inhibition of the binding of a radioactively labeled ligand specific for each target.
Results showing an inhibition or stimulation higher than 50% are considered to represent significant effects of the test compounds.

ER (non-selective) (h) = assay: Abuse liability binding screen, ER (non-selective) (h) (agonist radioligand); parameters: species or system human; conditions: 2.5E−05M
Description: as §1

GABA transporter = assay: Abuse liability binding screen, GABA transporter (antagonist radioligand); conditions: 2.5E−05M
Description: as §1

Na^+ channel (site 2) = assay: Abuse liability binding screen, Na+ channel (site 2) (antagonist radioligand); conditions: 2.5E−05M
Description: as §1

AMPA = assay: Abuse liability binding screen, AMPA (antagonist radioligand); conditions: 2.5E−05M
Description: as §1

κ (KOP) = κ (KOP) (Rattus norvegicus, UniProt P34975); assay: Binding screen and IC50 determination, κ (KOP) (agonist radioligand)
Chain of κ (KOP) (P34975 whole entry): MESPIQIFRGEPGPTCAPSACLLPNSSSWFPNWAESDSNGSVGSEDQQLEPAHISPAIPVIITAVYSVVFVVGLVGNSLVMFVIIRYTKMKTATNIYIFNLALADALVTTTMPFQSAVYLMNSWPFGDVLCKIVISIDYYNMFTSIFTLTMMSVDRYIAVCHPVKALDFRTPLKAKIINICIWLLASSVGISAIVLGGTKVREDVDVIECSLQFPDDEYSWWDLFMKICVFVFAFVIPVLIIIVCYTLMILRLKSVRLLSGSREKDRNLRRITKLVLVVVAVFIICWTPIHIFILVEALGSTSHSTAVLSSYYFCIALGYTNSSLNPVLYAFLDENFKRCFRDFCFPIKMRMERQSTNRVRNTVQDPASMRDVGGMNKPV
Description: as §1

kainate = assay: Abuse liability binding screen, kainate (agonist radioligand); conditions: 2.5E−05M
Description: as §1

PCP = assay: Abuse liability binding screen, PCP (antagonist radioligand); conditions: 2.5E−05M
Description: as §1

[3] = target: T3, cloned human δ-opioid receptor expressed in CHO (Homo sapiens, UniProt P41143); assay: Opioid cell functional assay, opioid-agonist assay, CHO-δ; type: cell-based; conditions: cell functional assays
T3 construct: expressed in transfected cells; host or cells: CHO cells
T3 sequence (P41143 whole entry): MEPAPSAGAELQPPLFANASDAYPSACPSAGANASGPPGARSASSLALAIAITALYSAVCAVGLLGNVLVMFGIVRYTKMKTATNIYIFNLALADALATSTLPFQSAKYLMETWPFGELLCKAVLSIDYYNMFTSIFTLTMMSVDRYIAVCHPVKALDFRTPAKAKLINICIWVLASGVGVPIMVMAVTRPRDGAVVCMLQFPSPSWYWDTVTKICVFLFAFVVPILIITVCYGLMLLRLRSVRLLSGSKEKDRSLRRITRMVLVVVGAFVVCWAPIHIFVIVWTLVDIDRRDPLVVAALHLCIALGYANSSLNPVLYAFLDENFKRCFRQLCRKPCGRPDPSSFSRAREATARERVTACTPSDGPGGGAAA

BZD (central) = assay: Abuse liability binding screen, BZD (central) (agonist radioligand); conditions: 2.5E−05M
Description: as §1

[4] = target: T4, μ-opioid receptor expressed in HEK cells (Mus musculus, UniProt P42866); assay: Opioid cell functional assay, opioid-antagonist assay, HEK-μ (CTOP); type: cell-based
T4 construct: expressed in transfected cells; host or cells: HEK (human embryonic kidney) cells
T4 sequence (P42866 whole entry): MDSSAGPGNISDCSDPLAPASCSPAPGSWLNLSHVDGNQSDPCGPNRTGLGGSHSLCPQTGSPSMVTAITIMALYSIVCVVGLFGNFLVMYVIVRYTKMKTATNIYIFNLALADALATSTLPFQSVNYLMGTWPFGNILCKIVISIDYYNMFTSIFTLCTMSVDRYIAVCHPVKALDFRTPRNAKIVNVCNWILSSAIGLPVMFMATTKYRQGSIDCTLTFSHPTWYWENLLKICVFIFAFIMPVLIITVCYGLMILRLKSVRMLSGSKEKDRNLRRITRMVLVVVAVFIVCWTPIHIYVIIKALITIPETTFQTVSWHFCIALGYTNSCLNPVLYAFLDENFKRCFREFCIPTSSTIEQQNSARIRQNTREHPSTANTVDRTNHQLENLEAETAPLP

[5] = target: T1, cloned human κ-opioid receptor expressed in CHO; assay: biochemical; type: binding
[6] = test system: glycine (strychnine−insensitive); type: binding; conditions: 2.5E−05M
Description: as §1

[7] = target: T4, μ-opioid receptor expressed in HEK cells; assay: Opioid receptor binding study, HEK-μ, [3H]DAMGO
NMDA = assay: Abuse liability binding screen, NMDA (antagonist radioligand); conditions: 2.5E−05M
Description: as §1

μ (MOP) (h) = μ (MOP) (h) (Homo sapiens, UniProt P35372); assay: biochemical; type: binding
Chain of μ (MOP) (h) (P35372 whole entry): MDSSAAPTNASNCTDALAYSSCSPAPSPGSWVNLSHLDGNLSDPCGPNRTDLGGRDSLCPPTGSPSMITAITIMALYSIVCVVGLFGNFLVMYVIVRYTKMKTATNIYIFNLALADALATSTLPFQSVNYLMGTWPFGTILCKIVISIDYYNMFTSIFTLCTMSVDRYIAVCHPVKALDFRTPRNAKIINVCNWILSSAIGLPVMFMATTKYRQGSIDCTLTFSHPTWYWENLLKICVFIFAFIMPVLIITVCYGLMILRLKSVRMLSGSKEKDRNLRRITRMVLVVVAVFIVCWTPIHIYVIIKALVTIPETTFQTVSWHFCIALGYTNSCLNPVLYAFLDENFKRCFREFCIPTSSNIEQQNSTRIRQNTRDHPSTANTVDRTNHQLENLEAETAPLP
Description: as §1

[8] = target: T1, cloned human κ-opioid receptor expressed in CHO; assay: cell-based; parameters: Max Inh (%): dose or concentration left out as unconfirmed; conditions: opioid-antagonist assay
[9] = target: T4, μ-opioid receptor expressed in HEK cells; assay: Opioid cell functional assay, opioid-agonist assay, HEK-μ; type: cell-based
[10] = target: T3, cloned human δ-opioid receptor expressed in CHO; assay: Opioid receptor binding study, CHO-δ, [3H]DPDPE; conditions: @ 25,000 nM, [3H]DADLE, read-out: % inhibition printed in the IC50 column
[11] = test system: Cl^− channel (GABA-gated); assay: Abuse liability binding screen, Cl− channel (GABA-gated) (antagonist radioligand); conditions: 2.5E−05M
Description: as §1

[12] = against a μ-opioid receptor agonist ligand

T1 sequence (P41145 whole entry): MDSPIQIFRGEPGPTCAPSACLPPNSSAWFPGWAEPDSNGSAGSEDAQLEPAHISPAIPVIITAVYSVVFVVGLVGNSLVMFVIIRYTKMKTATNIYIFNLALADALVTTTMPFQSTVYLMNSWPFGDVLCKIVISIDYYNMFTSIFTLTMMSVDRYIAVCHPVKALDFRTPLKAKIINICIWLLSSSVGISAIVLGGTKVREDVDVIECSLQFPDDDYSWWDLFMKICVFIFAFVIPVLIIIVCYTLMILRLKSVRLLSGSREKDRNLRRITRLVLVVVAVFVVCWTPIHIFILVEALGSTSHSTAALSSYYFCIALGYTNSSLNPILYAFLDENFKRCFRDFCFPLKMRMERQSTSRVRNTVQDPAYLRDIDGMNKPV

O=C(O)CC(CO)CN1CC[C@]23c4c5ccc(O)c4O[C@H]2[C@@H](O)CC[C@@]3(O)[C@H]1C5 (some centres unmarked) [Compound 1]
Cmax [1]: ~16 µM | EC50 [2]: > 100 µM | Max Inh (%) [2]: 14% | % Inhibition of Control Specific Binding 1st (OX2 (h); 2.5E−05M): −9.6% | % Inhibition of Control Specific Binding 2nd (OX2 (h); 2.5E−05M): −11.9% | % Inhibition of Control Specific Binding Mean (OX2 (h); 2.5E−05M): −10.7% | % Inhibition of Control Specific Binding 1st (ER (non-selective) (h)): −8.0% | % Inhibition of Control Specific Binding 2nd (ER (non-selective) (h)): 4.3% | % Inhibition of Control Specific Binding Mean (ER (non-selective) (h)): −1.9% | % Inhibition of Control Specific Binding 1st (GABA transporter): 7.4% | % Inhibition of Control Specific Binding 2nd (GABA transporter): −6.2% | % Inhibition of Control Specific Binding Mean (GABA transporter): 0.6% | % Inhibition of Control Specific Binding 1st (Na^+ channel (site 2)): −4.4% | % Inhibition of Control Specific Binding 2nd (Na^+ channel (site 2)): 21.0% | % Inhibition of Control Specific Binding Mean (Na^+ channel (site 2)): 8.3% | % Inhibition of Control Specific Binding 1st (AMPA): 0.9% | % Inhibition of Control Specific Binding 2nd (AMPA): −3.7% | % Inhibition of Control Specific Binding Mean (AMPA): −1.4% | IC50 (κ (KOP)): 74 µM | Ki (κ (KOP)): 49 µM | nH (κ (KOP); IC50 determination): 0.7 | % Inhibition of Control Specific Binding 1st (kainate): 6.3% | % Inhibition of Control Specific Binding 2nd (kainate): 34.1% | % Inhibition of Control Specific Binding Mean (kainate): 20.2% | % Inhibition of Control Specific Binding 1st (PCP): −12.2% | % Inhibition of Control Specific Binding 2nd (PCP): −1.4% | % Inhibition of Control Specific Binding Mean (PCP): −6.8% | activity at the delta receptor [3]: no activity | % Inhibition of Control Specific Binding 1st (BZD (central)): 3.4% | % Inhibition of Control Specific Binding 2nd (BZD (central)): 3.0% | % Inhibition of Control Specific Binding Mean (BZD (central)): 3.2% | IC50 [4]: > 30 µM | inhibition at 30 µM ([4]; HEK293, read-out: Max Inh (%)): -1% | IC50 ([5]; CHO-κ, [3H]U 69593): 74 µM | Ki ([5]; CHO-κ, [3H]U 69593): 49 µM | NAL Selectivity relative to Comp1 / M5 (Compound 1 or M5 Ki/NAL Ki) ([5]; k-receptor): 13,611 | % Inhibition of Control Specific Binding 1st [6]: −13.5% | % Inhibition of Control Specific Binding 2nd [6]: −9.7% | % Inhibition of Control Specific Binding Mean [6]: −11.6% | IC50 [7]: 3.2 µM | Ki [7]: 1.3 µM | NAL Selectivity relative to Comp1 / M5 (Compound 1 or M5 Ki/NAL Ki) ([7]; μ-receptor): 929 | % Inhibition of Control Specific Binding 1st (NMDA): −12.5% | % Inhibition of Control Specific Binding 2nd (NMDA): −9.8% | % Inhibition of Control Specific Binding Mean (NMDA): −11.1% | % Inhibition of Control Specific Binding Mean (μ (MOP) (h); 2.5E−05M): 92.0% | nH (μ (MOP) (h); IC50 determination): 0.6 | IC50 (μ (MOP) (h); [12]): 3.2 µM | Ki (μ (MOP) (h); [12]): 1.3 µM | Max Inh (%) [8]: −10% @ | IC50 ([8]; Nor-BNI, read-out: EC50 (nM) column (IC50 per footnote)): > 30000 nM | EC50 ([9]; EC50 (nM), opioid-agonist assay, HEK-μ): 78000 nM and ~78000 nM | EC50 ([9]; EC50, μ-opioid receptor partial agonist/antagonist): ~173000 nM | μ-agonist EC50 relative to Cmax in HD patients ([9]; EC50 exceeding Cmax): ~4 fold | Max Inh (%) ([9]; opioid-agonist assay, HEK-μ): 61% | inhibition at 25 µM [10]: 11% | % Inhibition of Control Specific Binding 1st [11]: 1.7% | % Inhibition of Control Specific Binding 2nd [11]: 1.0% | % Inhibition of Control Specific Binding Mean [11]: 1.3%

Oc1ccc2c3c1O[C@H]1[C@@H](O)CC[C@@]4(O)[C@@H](C2)N(CC2CCC2)CC[C@]314 [Nalbuphine, nalbuphine]
% Inhibition of Control Specific Binding 1st (OX2 (h); 1.0E−05M): −11.3% | % Inhibition of Control Specific Binding 2nd (OX2 (h); 1.0E−05M): −7.4% | % Inhibition of Control Specific Binding Mean (OX2 (h); 1.0E−05M): −9.4%
